Laboratory results published in patent US20060121136A1, “Hypotensive agent and method for producing same” (National Institute of Advanced Industrial Science and …, priority 2003, published 2006).

Target: T1, angiotensin-converting enzyme (ACE) (Oryctolagus cuniculus, UniProt P12822)
T1 construct: purchased Wako Jun-yaku A6778 (Lot No.)
T1 sequence (P12822 34-1310): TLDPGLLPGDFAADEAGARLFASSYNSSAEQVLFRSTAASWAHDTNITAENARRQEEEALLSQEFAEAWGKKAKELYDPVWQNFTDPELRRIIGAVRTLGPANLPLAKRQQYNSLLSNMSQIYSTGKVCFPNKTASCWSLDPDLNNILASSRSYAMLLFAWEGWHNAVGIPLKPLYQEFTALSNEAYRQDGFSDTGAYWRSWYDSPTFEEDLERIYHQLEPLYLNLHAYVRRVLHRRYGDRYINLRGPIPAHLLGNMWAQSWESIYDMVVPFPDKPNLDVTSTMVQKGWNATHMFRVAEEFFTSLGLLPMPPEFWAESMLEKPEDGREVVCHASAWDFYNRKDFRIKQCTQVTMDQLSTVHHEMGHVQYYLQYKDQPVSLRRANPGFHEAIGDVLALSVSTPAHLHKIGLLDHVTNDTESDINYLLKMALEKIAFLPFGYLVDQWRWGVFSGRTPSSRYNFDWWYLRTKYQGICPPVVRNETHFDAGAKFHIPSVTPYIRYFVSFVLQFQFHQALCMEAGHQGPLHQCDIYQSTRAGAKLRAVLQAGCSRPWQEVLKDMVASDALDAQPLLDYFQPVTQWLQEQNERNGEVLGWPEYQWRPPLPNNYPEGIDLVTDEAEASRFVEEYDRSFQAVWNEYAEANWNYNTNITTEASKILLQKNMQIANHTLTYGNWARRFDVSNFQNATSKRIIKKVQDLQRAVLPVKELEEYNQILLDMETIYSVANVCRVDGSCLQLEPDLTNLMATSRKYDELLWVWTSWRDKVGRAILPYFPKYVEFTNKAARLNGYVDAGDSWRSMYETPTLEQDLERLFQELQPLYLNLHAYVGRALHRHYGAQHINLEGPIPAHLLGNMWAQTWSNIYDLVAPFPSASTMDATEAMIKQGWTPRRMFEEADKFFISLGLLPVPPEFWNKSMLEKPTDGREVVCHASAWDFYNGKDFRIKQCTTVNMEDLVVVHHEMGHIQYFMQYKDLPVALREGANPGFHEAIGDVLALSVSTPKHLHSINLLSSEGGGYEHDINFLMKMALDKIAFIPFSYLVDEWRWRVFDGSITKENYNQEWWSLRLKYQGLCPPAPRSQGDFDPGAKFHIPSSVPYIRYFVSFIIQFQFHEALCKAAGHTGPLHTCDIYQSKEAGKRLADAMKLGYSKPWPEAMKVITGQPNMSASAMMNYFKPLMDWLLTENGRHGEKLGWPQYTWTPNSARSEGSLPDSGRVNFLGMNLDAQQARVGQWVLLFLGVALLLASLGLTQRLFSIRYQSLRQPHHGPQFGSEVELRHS
Assay: ACE inhibiting activity (Hip-His-Leu substrate, liberated hippuric acid OD at 228 nm)
Assay type: biochemical
Settings: final sample concentration 10 mM
Description: The blood pressure-lowering activity of the oligosaccharide for use in the invention was investigated by determining the angiotensin-converting enzyme inhibiting activity (hereinafter referred to as ACE inhibiting activity) thereof. Concretely, various oligosaccharides mentioned below were analyzed for their ACE inhibiting activity. • 1) Glc(α1-1α)Glc: α,α-trehalose (sold by Wako Jun-yaku, Lot No. KP7915), • 2) Glc(α1-1β)Glc: α,β-trehalose (sold by Sigma, Lot No. T-0299), • 3) Glc(β1-1β)Glc: β,β-trehalose (sold by Sigma, Lot No. T-0917), • 4) Glc(α1-2)Glc: kojibiose (sold by Sigma, Lot No. T-0299), • 5) Glc(β1-2)Glc: sophorose (sold by Sigma, Lot No. S-1404), • 6) Glc(α1-3)Glc: nigerose (sold by Wako Jun-yaku, Lot No. 142-06433), • 7) Glc(β1-3)Glc: laminaribiose (sold by Sigma, Lot No. L-6384), • 8) Glc(α1-4)Glc: maltose (sold by Sigma, Lot No. M-9171), • 9) Glc(β1-4)Glc: cellobiose (sold by Nacalai, Lot No. 075-11), • 10) Glc(α1-6)Glc: isomaltose (sold by Sigma, Lot No. I-7253), • 11) Glc(β1-6)Glc: gentiobiose (sold by Sigma, Lot No. G-3000), • 12) Gal(α1-6)Glc: melibiose (sold by Sigma, Lot No. M-5500), • 13) Gal(β1-6)Gal (sold by Sigma, Lot No. G-5643), • 14) Glc(α1-6) glucitol:Glc(α1-6) mannitol (=50:50) (sold by Sigma, Lot No. P8583-500), • 15) Glc(α1-6)Fru: palatinose (sold by Sigma, Lot No. M-5500), • 16) Fru(β2-1α)Glc: sucrose (sold by Wako Jun-yaku, Lot No. 192-00012), and • 17) Glc(α1-3) Fru(β2-1α) Glc: melezitose (sold by Nacalai, Lot No. 214-01). In these, Glu means glucose; Gal means galactose; and Fru means fructose.
Each oligosaccharide as above was dissolved in water (MilliQ water). Because of the solubility thereof, the sample was dissolved to have a final concentration of 10, 30 or 100 mM at the time when its activity is determined (Table 1). Next, with cooling with ice, 30 μl of the sample (Nos. 1 to 17 in Table 1) was put into a test tube. Then, 100 μl of ACE (sold by Wako Jun-yaku, Lot No. A6778) in a borate buffer (60 mU/ml) (pH 8.3) was added to each sample. As a blank, one also added with 250 μl of 1 N HCl serving as a reaction stopper was prepared. These were pre-incubated at 37° C. for 5 minutes. Further, 250 μl of a borate buffer (pH 8.3) containing as a substrate, 7.6 mM Hip-His-Leu (sold by Sigma, Lot No. 012-02195) and 608 mM sodium chloride (sold by Wako Jun-yaku, Lot No. 191-01665) was added. These were reacted at 37° C. for 30 minutes. Then, 250 μl of 1 NHCl was added and stirred, and the reaction was stopped. Then, 1.5 ml of ethyl acetate (sold by Wako Jun-yaku, Lot No. 051-00356) was added, and the thus-liberated hippuric acid was extracted out. After thus extracted, it was centrifuged at 3000 rpm for 10 minutes, and 0.5 ml of the supernatant (ethyl acetate layer)was recovered. The thus-recovered ethyl acetate was removed under reduced pressure, and 4 ml of water was added and stirred. The absorption of the dissolved hippuric acid at 228 nm (OD) was measured. The borate buffer used herein was prepared from Na2B4O7 (sold by Wako Jun-yaku, Lot No. 194-01415) and H3BO3 (sold by Wako Jun-yaku, Lot No. 012-02195) so that its pH could be 8.3. The data obtained were computed according to the calculation formula mentioned below, and the ACE inhibiting activity (%) of each sample was obtained as in Table 1 and FIG. 1. ACE Inhibiting Activity (%)={[(solvent OD−solvent blank OD)−(sample OD−sample blank OD)]/(solvent OD−solvent blank OD)}×100.

In order of rising “ACE Inhibiting Activity (%)” value:
1. OC[C@H]1O[C@H](O[C@H]2[C@H](O)[C@@H](CO)OC(O)[C@@H]2O)[C@H](O)[C@@H](O)[C@@H]1O (stereo partly shown) [compound 6, nigerose]  0.4%
2. OC[C@H]1O[C@H](O[C@H]2C(O)O[C@H](CO)[C@@H](O)[C@@H]2O)[C@H](O)[C@@H](O)[C@@H]1O (stereo partly shown) [compound 4, kojibiose]  1.0%

Same assay, conditions: final sample concentration 30 mM

In order of falling inhibition at 30000 µM:
1. OC[C@H]1O[C@@](CO)(O[C@H]2O[C@H](CO)[C@@H](O)[C@H](O)[C@H]2O)[C@@H](O)[C@@H]1O [compound 16, sucrose]  6.6%
2. OC[C@H]1O[C@@](CO)(O[C@H]2O[C@H](CO)[C@@H](O)[C@H](O)[C@H]2O)[C@@H](O[C@H]2O[C@H](CO)[C@@H](O)[C@H](O)[C@H]2O)[C@@H]1O [compound 17, melezitose]  5.5%
3. O=C[C@H](O)[C@@H](O)[C@H](O[C@@H]1O[C@H](CO)[C@@H](O)[C@H](O)[C@H]1O)[C@H](O)CO [compound 9, cellobiose]  -1%

In order of rising “ACE Inhibiting Activity (%)” value:
1. OC[C@H]1O[C@@H](O[C@@H]2O[C@H](CO)[C@@H](O)[C@H](O)[C@H]2O)[C@H](O)[C@@H](O)[C@@H]1O [compound 3, β,β-trehalose]  0.6%
2. OC[C@H]1O[C@@H](O[C@H]2[C@H](O)[C@@H](CO)OC(O)[C@@H]2O)[C@H](O)[C@@H](O)[C@@H]1O (stereo partly shown) [compound 7, laminaribiose]  0.8%
3. OC[C@H]1O[C@H](O[C@H]2O[C@H](CO)[C@@H](O)[C@H](O)[C@H]2O)[C@H](O)[C@@H](O)[C@@H]1O [compound 1, α,α-trehalose]  1.2%
4. OC[C@H]1O[C@@H](O[C@H]2O[C@H](CO)[C@@H](O)[C@H](O)[C@H]2O)[C@H](O)[C@@H](O)[C@@H]1O [compound 2, α,β-trehalose]  1.6%
5. OC[C@H]1O[C@@H](O[C@H]2C(O)O[C@H](CO)[C@@H](O)[C@@H]2O)[C@H](O)[C@@H](O)[C@@H]1O (stereo partly shown) [compound 5, sophorose]  3.0%

Same assay, conditions: final sample concentration 100 mM

In order of rising “ACE Inhibiting Activity (%)” value:
1. OC[C@H]1O[C@H](OC[C@H]2OC(O)[C@H](O)[C@@H](O)[C@@H]2O)[C@H](O)[C@@H](O)[C@@H]1O (stereo partly shown) [compound 10, isomaltose]  27.2%
2. gentiobiose [compound 11]  31.5%
3. OC[C@H]1O[C@H](OCC2O[C@@H](O)[C@H](O)[C@@H](O)[C@@H]2O)[C@H](O)[C@@H](O)[C@H]1O (stereo partly shown) [compound 12, melibiose]  40.7%
4. OC[C@H]1O[C@@H](OC[C@H]2OC(O)[C@H](O)[C@@H](O)[C@H]2O)[C@H](O)[C@@H](O)[C@H]1O (stereo partly drawn) [compound 13, Gal(β1-6)Gal]  54.9%
5. OC[C@H]1O[C@H](OC[C@H]2OC(O)(CO)[C@@H](O)[C@@H]2O)[C@H](O)[C@@H](O)[C@@H]1O (stereo partly shown) [compound 15, palatinose]  93.5%

`OC[C@H]1O[C@H](O[C@H]2[C@H](O)[C@@H](O)C(O)O[C@@H]2CO)[C@H](O)[C@@H](O)[C@@H]1O` (mixture of isomers) [compound 8, maltose] was tested, and the inhibition at 100000 µM was 6.3%.
